Measured values from patent US8697694B2, “Substituted pyridine and pyrimidine derivatives and their use in treating viral infections” (priority 2008, dated 2014).

Test system: HCV replicon cells
Assay: Cell-based HCV replicon assay (replicon RNA level by real time PCR, Taqman)
Conditions: Hepatitis C virus, 72 h, HCV replicon cells, harvested day 3, replicon RNA by real time PCR; given as number; read-out: EC90 (μM) range
How it was run: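 Readout: ΔCT between NS5B replicon RNA and GAPDH by real-time RT-PCR in lysates harvested on day 3, fitted sigmoidally; EC50 at ΔCT=1, EC90 at ΔCT=3.2. Compounds tested at ten 2-fold dilutions from 25 μM to 1 μM start, 10% FBS, 0.5% DMSO.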

Compared with `Cc1nc(NCC(F)(F)F)nc(N[C@@H]2CC[C@@H](O)C2)c1-c1nc2ccccc2s1` [Example 54], `CCOc1cc2cc(-c3c(C)nc(N[C@H](C)C4CC4)nc3N[C@@H]3C[C@H](CO)[C@@H](O)[C@H]3O)oc2c(C)n1` [Example 41] is 5-fold lower in EC90: 1 µM for the first, 0.2 µM for the second.

Same assay, conditions: Hepatitis C virus, 72 h, HCV replicon cells, harvested day 3, replicon RNA by real time PCR; reported as range class; read-out: EC90 (μM) range

`NC(=O)c1ccc2cc(-c3c(Cl)nc(N)nc3N[C@@H]3C[C@H](CO)[C@@H](O)[C@H]3O)oc2c1` [Example 178] and `Nc1nc(Cl)c(-c2cc3ccc(C(=O)N4CCOCC4)cc3o2)c(N[C@@H]2C[C@H](CO)[C@@H](O)[C@H]2O)n1` [Example 179] cannot be ordered by EC90: over 5 µM for the first, over 5 µM for the second.

Compared with `Nc1nc(Cl)c(-c2cc3cncnc3o2)c(N[C@@H]2C[C@H](CO)[C@@H](O)[C@H]2O)n1` [Example 402], `Cc1cc2cc(-c3c(Cl)nc(N)nc3N[C@@H]3C[C@H](CO)[C@@H](O)[C@H]3O)oc2cn1` [Example 306] is lower in EC90: over 5 µM for the first, under 0.5 µM for the second.

Compared with `CNc1nc(C)c(-c2nc3ccccc3s2)c(N[C@@H]2C[C@H](CO)[C@@H](O)[C@H]2O)n1` [Example 319], `Cc1nc(NCCF)nc(N[C@@H]2C[C@H](CO)[C@@H](O)[C@H]2O)c1-c1nc2ccccc2s1` [Example 216] is higher in EC90: under 0.5 µM for the first, 0.5 to 5 µM for the second.

Compared with `Nc1nc(Cl)c(-c2nc3ccccc3o2)c(N[C@@H]2C[C@H](CO)[C@@H](O)[C@H]2O)n1` [Example 109], `Cc1ccc2oc(-c3c(Cl)nc(N)nc3N[C@@H]3C[C@H](CO)[C@@H](O)[C@H]3O)nc2c1` [Example 193] is higher in EC90: under 0.5 µM for the first, over 5 µM for the second.

`CCOCCNc1nc(Cl)c(-c2nc3ccccc3s2)c(N[C@@H]2C[C@H](CO)[C@@H](O)[C@H]2O)n1` [Example 206] and `CC(C)CNc1nc(Cl)c(-c2nc3ccccc3s2)c(N[C@@H]2C[C@H](CO)[C@@H](O)[C@H]2O)n1` [Example 320] cannot be ordered by EC90: under 0.5 µM for the first, under 0.5 µM for the second.

Going from `CCc1nc(N(C)C)nc(N[C@@H]2C[C@H](CO)[C@@H](O)[C@H]2O)c1-c1nc2ccccc2s1` [Example 314] to `CCN(C)c1nc(Cl)c(-c2nc3ccccc3s2)c(N[C@@H]2C[C@H](CO)[C@@H](O)[C@H]2O)n1` [Example 318], the EC90 falls from over 5 µM to under 0.5 µM.

`CC1(C)O[C@@H]2[C@@H](CO)C[C@@H](Nc3nc(N)nc(-c4nc5c(F)cc(F)cc5s4)c3-c3nc4c(F)cc(F)cc4s3)[C@@H]2O1` [Example 185] and `Nc1nc(Cl)c(-c2cc3cc(Cl)ccc3o2)c(N[C@@H]2C[C@H](CO)[C@@H](O)[C@H]2O)n1` [Example 165] cannot be ordered by EC90: over 5 µM for the first, over 5 µM for the second.

`OC[C@H]1C[C@@H](Nc2ncnc(Cl)c2-c2nc3ccccc3s2)[C@H](O)[C@@H]1O` [Example 118] gave an EC90 of over 5 µM.

Same assay, conditions: Hepatitis C virus, 72 h, HCV replicon cells, harvested on day 3, replicon RNA by real time PCR; calculated EC90 reported as range class; read-out: EC90 (μM) range

First: Cc1nc(NCc2cccc(F)c2)nc(N[C@@H]2C[C@H](CO)[C@H]3OC(C)(C)O[C@H]32)c1-c1nc2ccccc2s1 [Example 243]
Second: Cc1cccc(CNc2nc(C)c(-c3nc4ccccc4s3)c(N[C@@H]3C[C@H](CO)[C@H]4OC(C)(C)O[C@H]43)n2)c1 [Example 485]
The EC90 of the first is lower: under 0.5 µM for the first, 0.5 to 5 µM for the second.

`Cc1ccc(CNc2nc(C)c(-c3nc4ccccc4s3)c(N[C@@H]3C[C@H](CO)[C@H]4OC(C)(C)O[C@H]43)n2)s1` [Example 496] and `Cc1nc(NCc2cccs2)nc(N[C@@H]2C[C@H](CO)[C@H]3OC(C)(C)O[C@H]32)c1-c1nc2ccccc2s1` [Example 328] cannot be ordered by EC90: under 0.5 µM for the first, under 0.5 µM for the second.

`CCCCCCNc1nc(C)c(-c2nc3ccccc3s2)c(N[C@@H]2C[C@H](CO)[C@@H](O)[C@H]2O)n1` [Example 455] and `Cc1nc(NCC2CC2)nc(N[C@@H]2C[C@H](CO)[C@@H](O)[C@H]2O)c1-c1nc2ccccc2s1` [Example 505] cannot be ordered by EC90: under 0.5 µM for the first, under 0.5 µM for the second.

`Cc1nc(CNc2nc(C)c(-c3nc4ccccc4s3)c(N[C@@H]3C[C@H](CO)[C@@H](O)[C@H]3O)n2)cs1` [Example 495] and `Cc1nc(NCc2ccsc2)nc(N[C@@H]2C[C@H](CO)[C@@H](O)[C@H]2O)c1-c1nc2ccccc2s1` [Example 331] cannot be ordered by EC90: under 0.5 µM for the first, under 0.5 µM for the second.

Going from `Cc1nc(NCc2cccs2)nc(N[C@@H]2C[C@H](C)[C@@H](O)[C@H]2O)c1-c1nc2ccccc2s1` [Example 337] to `Cc1nc(NCc2cccs2)nc(N[C@@H]2CC[C@H]3OC4(CCCCC4)O[C@@H]23)c1-c1nc2ccccc2s1` [Example 334], the EC90 rises from under 0.5 µM to over 5 µM.

Compared with `Cc1nc(NCC2CCCO2)nc(N[C@@H]2C[C@H](CO)[C@@H](O)[C@H]2O)c1-c1nc2ccccc2s1` (stereo partly drawn) [Example 325], `OC[C@H]1C[C@@H](Nc2nc(NCC(F)(F)F)nc(C3CC3)c2-c2nc3ccccc3s2)[C@H](O)[C@@H]1O` [Example 128] is higher in EC90: under 0.5 µM for the first, over 5 µM for the second.

`Cc1nc(NCC(F)(F)F)nc(N[C@@H]2C[C@H](CO)[C@H]3OC(C)(C)O[C@H]32)c1-c1cc2cc(C(F)(F)F)ncc2o1` [Example 140] and `Cc1nc(NCC(F)(F)F)nc(N[C@@H]2C[C@H](CO)[C@@H](O)[C@H]2O)c1-c1cc2cc(C(F)(F)F)ncc2o1` [Example 142] fall in the same range of EC90: 0.5 to 5 µM for the first, 0.5 to 5 µM for the second.

Going from `Cc1nc(S(C)(=O)=O)nc(N[C@@H]2C[C@H](CO)[C@@H](O)[C@H]2O)c1-c1nc2ccccc2s1` [Example 324] to `COC[C@H](C)Nc1nc(Cl)c(-c2nc3ccccc3s2)c(N[C@@H]2C[C@H](CO)[C@@H](O)[C@H]2O)n1` [Example 438], the EC90 falls from over 5 µM to under 0.5 µM.

Going from `Cc1cc2cc(-c3c(Cl)nc(NCC4CCOCC4)nc3N[C@@H]3C[C@H](CO)[C@@H](O)[C@H]3O)oc2c(C)n1` [Example 458] to `Cc1cc2cc(-c3c(Cl)nc(N(C)C)nc3N[C@@H]3C[C@H](CO)[C@@H](O)[C@H]3O)oc2c(C)n1` [Example 420], the EC90 rises from under 0.5 µM to over 5 µM.

`Cc1nc(NCc2cccn2C)nc(N[C@@H]2C[C@H](CO)[C@H]3OC(C)(C)O[C@H]32)c1-c1nc2ccccc2s1` [Example 468] and `CCCCCNc1nc(C)c(-c2cc3cc(C)ncc3o2)c(N[C@@H]2C[C@H](CO)[C@@H](O)[C@H]2O)n1` [Example 453] cannot be ordered by EC90: under 0.5 µM for the first, under 0.5 µM for the second.

Same assay, conditions: Hepatitis C virus, 72 h, HCV replicon cells, replicon RNA level by real time PCR (Taqman), day 3; calculated EC90; read-out: EC90 (μM) range

With `COc1cc(CCNc2nc(C)c(-c3nc4cnccc4s3)c(N[C@@H]3C[C@H](CO)[C@@H](O)[C@H]3O)n2)cc(OC)c1` [Example 2010] the EC90 was under 0.5 µM.

Same assay, conditions: Hepatitis C virus, 72 h, HCV replicon cells, replicon RNA level by real time PCR (Taqman), harvested on day 3; calculated EC90 reported as range class; read-out: EC90 (μM) range

First: COc1cccc2sc(-c3c(C)nc(NCC4CC4)nc3N[C@@H]3C[C@H](C(C)O)[C@@H](O)[C@H]3O)nc12 (stereo partly drawn) [Example 1073]
Second: COc1cc2cc(-c3c(C)nc(NCC4CC4)nc3N[C@@H]3C[C@H](CO)[C@@H](O)[C@H]3O)oc2c(OC)n1 [Example 1127]
The EC90 of the first is higher: 0.5 to 5 µM for the first, under 0.5 µM for the second.

`[2H]C([2H])(Nc1nc(C)c(-c2nc3ccccc3s2)c(N[C@@H]2C[C@H](CO)[C@@H](O)[C@H]2O)n1)c1cc(OC)cc(OC)c1` [Example 1244] and `Cc1cc(CNc2nc(C)c(-c3nc4cnccc4s3)c(N[C@@H]3C[C@H](CO)[C@@H](O)[C@H]3O)n2)on1` [Example 538] cannot be ordered by EC90: under 0.5 µM for the first, under 0.5 µM for the second.

First: Cc1nc(N[C@H](C)c2ccc(F)cc2)nc(N[C@@H]2C[C@H](CO)[C@@H](O)[C@H]2O)c1-c1nc2cnccc2s1 [Example 1311]
Second: COCc1cc2cc(-c3c(C)nc(NCc4ccco4)nc3N[C@@H]3C[C@H](CO)[C@H]4OC(C)(C)O[C@H]43)oc2cn1 [Example 1107]
The EC90 of the first is lower: under 0.5 µM for the first, 0.5 to 5 µM for the second.

Same assay, conditions: Hepatitis C virus, 72 h, HCV replicon cells, replicon RNA level by real time PCR, harvested day 3; read-out: EC90 (μM) range

`Cc1nc(NCC2CC2)nc(N[C@@H]2C[C@H](CO)[C@@H](O)[C@H]2O)c1-c1cc2ccccc2s1` [Example 1603] and `Cc1nc(NCC(F)(F)F)nc(N[C@@H]2C[C@H](CO)[C@@H](O)[C@H]2O)c1-c1cc2ccccc2s1` [Example 1604] cannot be ordered by EC90: over 5 µM for the first, over 5 µM for the second.

`CCOCCNc1nc(C)c(-c2nc3c(CC)nccc3s2)c(N[C@@H]2C[C@H](CO)[C@@H](O)[C@H]2O)n1` [Example 1504] and `Cc1nc(NC2CC2)nc(N[C@@H]2C[C@H](CO)[C@@H](O)[C@H]2O)c1-c1nc2c(C)nccc2s1` [Example 1543] cannot be ordered by EC90: under 0.5 µM for the first, under 0.5 µM for the second.

First: Cc1nc(C(N)=O)nc(N[C@@H]2C[C@H](CO)[C@@H](O)[C@H]2O)c1-c1nc2ccccc2s1 [Example 1903]
Second: Cc1nc(NCC(F)(F)F)nc(N[C@@H]2C[C@H](O)[C@@H](O)[C@H]2O)c1-c1nc2ccccc2s1 [Example 1366]
The EC90 of the first is higher: over 5 µM for the first, 0.5 to 5 µM for the second.

Compared with `Cc1nc(NCC2CC2)nc(N[C@@H]2CC[C@@H](O)[C@@]2(C)O)c1-c1nc2cnccc2s1` [Example 1704], `Cc1nc(NC2CC2)nc(N[C@@H]2CC[C@@H](O)[C@@]2(C)O)c1-c1nc2cnccc2s1` [Example 1820] is higher in EC90: under 0.5 µM for the first, 0.5 to 5 µM for the second.

`Cc1nc(NCC(F)(F)F)nc(N[C@@H]2C[C@@H](CN(CC3CC3)S(C)(=O)=O)[C@@H](O)[C@H]2O)c1-c1nc2ccccc2s1` [Example 1394] and `Cc1nc(NCC2CC2)nc(N[C@@H]2CC[C@@H](O)C2O)c1-c1nc2ccccc2s1` (stereo partly drawn) [Example 1626] fall in the same range of EC90: 0.5 to 5 µM for the first, 0.5 to 5 µM for the second.

First: Cc1cccc([C@@H](C)Nc2nc(C)c(-c3nc4c(C)nccc4s3)c(N[C@@H]3C[C@H](CO)[C@@H](O)[C@H]3O)n2)c1 [Example 1525]
Second: COc1cc(CNc2nc(C)c(-c3nc4ccccc4s3)c(N[C@H]3C[C@@H](CO)[C@H](O)[C@@H]3O)n2)cc(OC)c1 [Example 1501]
The EC90 of the first is lower: under 0.5 µM for the first, 0.5 to 5 µM for the second.

Compared with `Cc1nc(NCC2CC2)nc(N)c1-c1nc2cnccc2s1` [Example 1510], `Cc1nc(NCC(F)(F)F)nc(N[C@@H]2C[C@H](CO)N(C(=O)OC(C)(C)C)C2)c1-c1nc2ccccc2s1` [Example 1348] is higher in EC90: 0.5 to 5 µM for the first, over 5 µM for the second.

`Cc1nc(NCC(C)(C)C)nc(N[C@@H]2C[C@H](CO)[C@@H](O)[C@H]2O)c1-c1nc2ccccc2o1` [Example 1359] and `CO[C@@H]1[C@H](O)[C@@H](CO)C[C@H]1Nc1nc(NCC(F)(F)F)nc(C)c1-c1nc2ccccc2o1` [Example 1354] cannot be ordered by EC90: under 0.5 µM for the first, under 0.5 µM for the second.
